Laboratory results taken from article PMC5556019, “Targeting Apolipoprotein E/Amyloid β Binding by Peptoid CPO_Aβ17-21 P Ameliorates Alzheimer’s Disease Related Pathology and Cognitive Decline” (Scientific Reports, 2017).
Numbered stars: 1 amine (or outer) side, 2 acyl side, 3 side chain; on linkers, the order of the positions; unused ones are H or OH. Bridge positions count the residues as written; N and C are the ends. Square brackets hold non-standard residues; d marks the D form. Peptide text beside a SMILES is read from it. ξ: configuration not given here. N(CH2CH2CO)Gly = O=C(CN(CCC(=O)[*:3])[*:1])[*:2]; Nphe = O=C(O)CNCc1ccccc1; Nleu = CC(C)CNCC(=O)O; ξP = O=C(O)C1CCCN1; Sar = CNCC(=O)O

Key:
[1] = tested on: apoE4 mediated Aβ40 aggregation; assay: Thioflavin T assay of apoE4 mediated Aβ40 aggregation; type: biochemical, human
Procedure: (§1) Peptide Aβ42 or peptoid CPO_Aβ17-21 P were incubated alone at a concentration of 100 µM over a period of 7–10 days at 37 °C in 100 mM Tris buffer (pH 7.4). […] In aggregation inhibition experiments, apoE4 was pre-incubated with CPO_Aβ17-21 P in a molar ratio of 1:2 for 6 hrs at 37 °C followed by addition to freshly reconstituted Aβ42 on ice (molar ratio 100:1:2, Aβ42:apoE4:peptoid). As a control, Aβ42 was also incubated with CPO_Aβ17-21 P at a molar ratio of 100:2. For peptide Aβ40 all the experiments were conducted under the same conditions as Aβ42 except the peptide concentration was 400 µM. The molar ratio of Aβ40:apoE4:CPO_Aβ17-21 P was 100:1:2. (400 µM Aβ40:4 µM apoE4:8 µM CPO_Aβ17-21 P). Fibril formation by the different peptides at various time points was evaluated by a standard Thioflavin-T assay according to previously published protocols, [33].The samples were diluted in buffer containing 50 mM glycine, 2 µM Thioflavin T pH 9.2, and read on a Molecular Devices SpectraMax M2 spectrophotometer (Sunnyvale, CA) at excitation and emission wavelengths 440 and 482 nm.

[2] = tested on: apoE4 mediated Aβ42 aggregation; assay: Thioflavin T assay of apoE4 mediated Aβ42 aggregation; type: biochemical, human
Procedure: as §1

APP/PS1 Tg mice [3] = assay: Brain Aβ and oligomeric Aβ levels by ELISA and western blot; type: in vivo, mouse
Procedure: (§2) The effect of CPO_Aβ17-21 P on Aβ deposition was tested in APP/PS1 Tg mice with plaque pathology. This AD mouse model develops plaque pathology from the age of 3 months. Animals were divided into two groups and received intraperitoneally (i.p.) injections of 0.2 mg of CPO_ Aβ17–21 P per mouse in sterile saline (n = 11, 5 male, 6 female) or saline alone (n = 10, 5 male, 5 female) as a control twice weekly for 4 months, beginning at age 3 months. During the treatment, veterinary staff monitored animals for any signs of toxicity, such as changes in body weight, physical appearance, and altered behavior. Animals were sacrificed a week after administration of the last treatment dose and behavioral testing. All mouse care and experimental procedures were compliant with guidelines of animal experimentation and were approved by the Institutional Animal Care and Use Committee at the New York University School of Medicine.
Brains were weighed and homogenized (10% w/v) in tissue homogenization buffer (20 mM Tris base, pH 7.4, 250 mM sucrose, 1 mM EDTA, 1 mM EGTA) with […] phenylmethylsulphonyl fluoride, complete protease inhibitor cocktail and PhosSTOP phosphatase inhibitor cocktail (Roche, Indianapolis, IN, USA) added immediately before homogenization. The extraction of soluble Aβ and total Aβ was according to the method we have published previously, [44]. Brain homogenates were mixed with an equal volume of cold 0.4% diethylamine (DEA)/100 mM NaCl, and subsequently centrifuged at 100,000 × g for 1 hr at 4 °C. The supernatant was neutralized with 1/10 volume of 0.5 M Tris, pH 6.8, flash-frozen on dry ice and stored at −80 °C until used for ELISA analysis as soluble Aβ fraction. […] Soluble and total Aβ levels in the brain were measured by sandwich ELISA which used 6E10 monoclonal antibody as a capture antibody and two detection polyclonal antibodies R162 and R165 specific for Aβ40 and Aβ42, respectively. […]
Oligomeric Aβ (o-Aβ) levels were determined with the Biosensis Oligomeric Amyloid-Beta ELISA kit (Biosensis, Thebarton, South Australia) following the manufacturer’s instructions. In brief, the unknown concentrations of o-Aβ in samples were measured against a standard containing different concentrations of o-Aβ. […] The TMB reaction was stopped and the absorbance of each well was read at 450 nm. The standards provided a linear curve and the best-fit line determined by linear regression were used to calculate the concentration of Aβ oligomers in the samples
Brain homogenates were centrifuged at 100,000 × g for 1 hr at 4 °C. The supernatants were collected and the total protein concentrations were determined by the bicinchoninic acid assay (BCA; Pierce, Rockford, IL). […]

APP/PS1 Tg mice [4] = assay: Plasma total cholesterol level; type: in vivo; conditions: 0.2 mg per mouse i.p. twice weekly for 4 months; p > 0.05
Procedure: as §2
Plasma cholesterol level was measured by using a Cholesterol E kit (Wako Diagnostics, Richmond, VA)[45]. The Cholesterol E is an enzymatic colorimetric method for the quantitative determination of total cholesterol in the blood.

In the case of `CC(C)CN1CC(=O)N2CCCC2C(=O)N(Cc2ccccc2)CC(=O)N(Cc2ccccc2)CC(=O)N(C)CC(=O)N(CC(N)=O)CCC1=O` (stereo not drawn) [CPO_Aβ17-21 P] ([Nleu][ξP][Nphe][Nphe][Sar][N(CH2CH2CO)Gly]-NH2; lactam N-6), the “inhibition of apoE4 mediated Aβ40 aggregation” value ([1]; 400 µM Aβ40:4 µM apoE4:8 µM peptoid, apoE4 pre-incubated with peptoid 6 hrs 37 °C, p = 0.0034) was “significant inhibition”, the “Aβ40 fibril formation with peptoid versus Aβ40 alone” value ([1]; Aβ40 + peptoid without apoE4, molar ratio 100:2) was “no significant difference” and the “inhibition of apoE4 mediated Aβ42 aggregation” value ([2]; 100 µM Aβ42, molar ratio 100:1:2 Aβ42:apoE4:peptoid, apoE4 pre-incubated 6 hrs 37 °C, p = 0.0011) was “significant inhibition”. The “Aβ42 fibril formation with peptoid versus Aβ42 alone” value ([2]; Aβ42 + peptoid without apoE4, molar ratio 100:2) was “no significant difference”, the “Aβ42 in the insoluble (formic acid) brain fraction” value (APP/PS1 Tg mice [3]; ELISA, p < 0.0001 versus vehicle) was “Reduction” and the “Aβ40 in the insoluble (formic acid) brain fraction” value (APP/PS1 Tg mice [3]; ELISA, p < 0.001 versus vehicle) was “Reduction”. The “Aβ oligomeric species by western blot” value (APP/PS1 Tg mice [3]; anti-amyloid antibody 4G8, brain homogenates, p < 0.05 versus vehicle) was “Reduction”, the “Aβ oligomeric species by ELISA” value (APP/PS1 Tg mice [3]; brain homogenates, p < 0.05 versus vehicle) was “Reduction” and the “plasma total cholesterol level, treated versus vehicle” value (APP/PS1 Tg mice [4]) was “no significant difference”.
